The target of data set [1] is T1, Receptor-type tyrosine-protein kinase FLT3 (Homo sapiens, UniProt P36888).
T1 sequence (P36888 whole entry): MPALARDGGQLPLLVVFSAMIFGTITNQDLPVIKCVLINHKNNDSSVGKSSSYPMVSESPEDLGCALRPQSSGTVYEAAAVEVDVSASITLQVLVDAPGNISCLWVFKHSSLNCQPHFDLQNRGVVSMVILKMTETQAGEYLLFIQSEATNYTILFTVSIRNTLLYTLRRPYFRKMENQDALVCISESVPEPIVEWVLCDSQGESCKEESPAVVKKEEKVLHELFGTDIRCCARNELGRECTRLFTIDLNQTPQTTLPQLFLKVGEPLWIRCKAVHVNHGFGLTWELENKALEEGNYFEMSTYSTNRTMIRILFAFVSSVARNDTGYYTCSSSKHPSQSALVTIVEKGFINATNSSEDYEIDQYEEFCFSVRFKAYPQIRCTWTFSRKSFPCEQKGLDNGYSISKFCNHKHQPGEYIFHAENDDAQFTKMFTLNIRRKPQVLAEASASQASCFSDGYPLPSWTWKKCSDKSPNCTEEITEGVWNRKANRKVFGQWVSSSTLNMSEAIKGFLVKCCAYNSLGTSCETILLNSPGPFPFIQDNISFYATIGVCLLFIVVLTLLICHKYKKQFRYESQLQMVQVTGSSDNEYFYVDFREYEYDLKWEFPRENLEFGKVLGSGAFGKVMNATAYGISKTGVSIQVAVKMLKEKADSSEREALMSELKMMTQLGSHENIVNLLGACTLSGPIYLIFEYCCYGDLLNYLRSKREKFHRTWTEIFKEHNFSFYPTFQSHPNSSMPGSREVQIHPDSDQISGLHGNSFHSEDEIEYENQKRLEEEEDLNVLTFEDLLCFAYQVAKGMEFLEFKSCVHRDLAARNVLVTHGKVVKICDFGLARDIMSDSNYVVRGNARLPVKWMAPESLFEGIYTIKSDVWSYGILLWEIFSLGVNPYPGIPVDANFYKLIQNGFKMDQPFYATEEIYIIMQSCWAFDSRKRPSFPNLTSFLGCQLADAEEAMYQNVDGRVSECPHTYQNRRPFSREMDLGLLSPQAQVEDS
Description: Inhibition of wild type FLT3

Data set [2] deals with Vascular endothelial growth factor receptor 2 (Homo sapiens, UniProt P35968).
Chain of Vascular endothelial growth factor receptor 2 (P35968 whole entry): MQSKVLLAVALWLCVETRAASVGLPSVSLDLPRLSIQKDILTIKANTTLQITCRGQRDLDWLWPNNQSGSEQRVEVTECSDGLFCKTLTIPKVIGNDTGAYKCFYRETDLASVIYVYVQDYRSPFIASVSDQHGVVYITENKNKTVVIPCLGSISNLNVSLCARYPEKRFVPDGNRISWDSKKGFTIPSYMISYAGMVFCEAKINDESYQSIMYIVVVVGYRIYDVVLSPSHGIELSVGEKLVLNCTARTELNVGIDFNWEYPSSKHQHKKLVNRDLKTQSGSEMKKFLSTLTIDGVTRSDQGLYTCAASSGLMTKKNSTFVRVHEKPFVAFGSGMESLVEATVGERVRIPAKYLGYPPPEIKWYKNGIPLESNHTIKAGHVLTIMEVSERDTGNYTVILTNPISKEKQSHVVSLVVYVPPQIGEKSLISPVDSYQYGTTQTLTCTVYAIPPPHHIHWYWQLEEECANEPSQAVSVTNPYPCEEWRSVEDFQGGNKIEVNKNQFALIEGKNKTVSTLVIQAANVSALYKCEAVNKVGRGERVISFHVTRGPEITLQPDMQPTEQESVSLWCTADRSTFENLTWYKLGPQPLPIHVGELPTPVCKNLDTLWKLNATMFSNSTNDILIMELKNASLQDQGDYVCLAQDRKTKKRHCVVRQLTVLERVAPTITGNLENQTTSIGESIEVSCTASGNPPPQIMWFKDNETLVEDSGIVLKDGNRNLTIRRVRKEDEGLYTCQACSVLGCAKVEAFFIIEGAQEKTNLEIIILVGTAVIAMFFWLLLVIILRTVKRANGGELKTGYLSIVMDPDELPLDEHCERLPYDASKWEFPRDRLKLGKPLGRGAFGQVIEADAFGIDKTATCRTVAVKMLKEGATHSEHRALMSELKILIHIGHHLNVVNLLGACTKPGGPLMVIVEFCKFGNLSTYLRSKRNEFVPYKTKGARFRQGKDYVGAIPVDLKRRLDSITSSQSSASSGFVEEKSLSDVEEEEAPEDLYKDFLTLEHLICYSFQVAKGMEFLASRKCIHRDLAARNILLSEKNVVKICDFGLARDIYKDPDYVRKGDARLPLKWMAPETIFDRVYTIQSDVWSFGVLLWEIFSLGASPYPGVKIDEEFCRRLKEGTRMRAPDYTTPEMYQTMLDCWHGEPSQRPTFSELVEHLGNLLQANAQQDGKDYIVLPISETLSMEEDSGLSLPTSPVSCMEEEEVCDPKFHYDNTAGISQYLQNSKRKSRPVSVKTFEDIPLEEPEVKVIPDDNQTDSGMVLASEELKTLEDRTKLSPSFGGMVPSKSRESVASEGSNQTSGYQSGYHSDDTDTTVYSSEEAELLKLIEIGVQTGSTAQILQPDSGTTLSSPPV
Data set [3] deals with Vascular endothelial growth factor receptor 1 (Homo sapiens, UniProt P17948).
Chain of Vascular endothelial growth factor receptor 1 (P17948 whole entry): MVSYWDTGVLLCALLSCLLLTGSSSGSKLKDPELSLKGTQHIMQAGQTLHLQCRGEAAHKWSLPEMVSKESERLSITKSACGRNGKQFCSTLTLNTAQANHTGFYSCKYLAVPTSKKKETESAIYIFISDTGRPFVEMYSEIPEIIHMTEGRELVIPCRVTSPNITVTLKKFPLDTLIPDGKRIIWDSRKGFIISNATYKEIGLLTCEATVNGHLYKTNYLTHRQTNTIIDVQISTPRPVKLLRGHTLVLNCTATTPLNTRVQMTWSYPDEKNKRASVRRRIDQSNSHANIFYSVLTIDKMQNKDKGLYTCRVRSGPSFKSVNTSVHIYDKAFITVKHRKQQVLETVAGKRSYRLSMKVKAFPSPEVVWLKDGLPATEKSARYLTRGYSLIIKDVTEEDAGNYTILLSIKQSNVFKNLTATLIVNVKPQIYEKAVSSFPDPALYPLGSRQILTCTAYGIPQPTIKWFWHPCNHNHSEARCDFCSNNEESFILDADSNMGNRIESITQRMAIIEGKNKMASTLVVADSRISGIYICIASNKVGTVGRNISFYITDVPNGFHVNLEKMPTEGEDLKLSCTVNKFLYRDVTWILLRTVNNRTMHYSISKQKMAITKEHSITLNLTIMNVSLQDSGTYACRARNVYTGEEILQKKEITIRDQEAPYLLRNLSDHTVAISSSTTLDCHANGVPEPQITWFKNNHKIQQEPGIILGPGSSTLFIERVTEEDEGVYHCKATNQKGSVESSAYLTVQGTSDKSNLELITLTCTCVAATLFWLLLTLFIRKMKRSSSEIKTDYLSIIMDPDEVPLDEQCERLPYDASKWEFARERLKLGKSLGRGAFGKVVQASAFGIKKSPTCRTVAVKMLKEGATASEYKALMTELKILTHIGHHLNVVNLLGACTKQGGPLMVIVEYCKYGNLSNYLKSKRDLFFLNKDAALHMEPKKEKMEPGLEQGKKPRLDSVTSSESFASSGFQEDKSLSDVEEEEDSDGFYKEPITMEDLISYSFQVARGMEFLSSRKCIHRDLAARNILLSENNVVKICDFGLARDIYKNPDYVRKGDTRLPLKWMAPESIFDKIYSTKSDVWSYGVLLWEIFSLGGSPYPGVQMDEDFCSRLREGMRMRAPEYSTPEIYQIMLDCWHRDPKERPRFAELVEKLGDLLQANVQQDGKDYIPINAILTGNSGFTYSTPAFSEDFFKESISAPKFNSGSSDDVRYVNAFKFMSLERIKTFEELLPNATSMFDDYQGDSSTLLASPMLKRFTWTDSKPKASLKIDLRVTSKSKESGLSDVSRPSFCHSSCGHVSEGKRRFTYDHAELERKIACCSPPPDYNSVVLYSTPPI
For the next data set, the target named is T2, Aurora kinase A (Homo sapiens, UniProt O14965).
T2 sequence (O14965 whole entry): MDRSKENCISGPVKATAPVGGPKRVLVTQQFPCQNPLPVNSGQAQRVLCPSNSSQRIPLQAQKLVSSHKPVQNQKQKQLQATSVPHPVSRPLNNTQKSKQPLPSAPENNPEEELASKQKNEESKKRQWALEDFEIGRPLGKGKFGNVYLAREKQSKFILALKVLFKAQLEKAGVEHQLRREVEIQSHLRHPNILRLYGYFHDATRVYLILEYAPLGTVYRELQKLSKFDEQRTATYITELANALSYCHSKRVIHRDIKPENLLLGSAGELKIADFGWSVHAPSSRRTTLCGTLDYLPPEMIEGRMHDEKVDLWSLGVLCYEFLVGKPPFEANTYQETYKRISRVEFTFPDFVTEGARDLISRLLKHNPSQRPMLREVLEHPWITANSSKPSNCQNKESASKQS

The subject of another data set is MOLM-13. Description: cells. The note with it: Homo sapiens.
The nature of data set [4]: AUC (0 to 4 hrs) in rat at 2 mg/kg, iv. In kind it is ADME, organism-based. Set-up: time < 4 hr, dose 2 mg/kg, route intravenous. The note with it: plasma.

These results are taken from ChEMBL document CHEMBL2062390, “3-Phenyl-1H-5-pyrazolylamine-based derivatives as potent and efficacious inhibitors of FMS-like tyrosine kinase-3 (FLT3)” (Bioorg Med Chem Lett, 2012).

Description for MOLM-13: Antiproliferative activity against human MOLM13 cells expressing FLT3-ITD mutant

For the compound `Cc1nc(Nc2cc(-c3ccc(CNC(=O)OCc4ccccc4)cc3)n[nH]2)cc(N2CCN(CCO)CC2)n1`, the IC50 amounted to 10 nM in data set [1], 240 nM in data set [2], 290 nM in data set [3] and 170 nM on Aurora kinase A. For the same compound, the GI50 in the data set with MOLM-13 was determined as 2 nM.
Regarding `Cc1nc(Nc2cc(-c3ccc(CNC(=O)OCc4ccccc4)cc3)n[nH]2)cc(N2CCN(C)CC2)n1`, the IC50 in data set [1] is 18 nM; in data set [2] it was 310 nM; in data set [3], 420 nM; at Aurora kinase A, 430 nM. Further, halving of growth in the data set with MOLM-13 (GI50) required 2 nM.
`Cc1cc(COC(=O)NCc2ccc(-c3cc(NC(=O)c4ccc(OCCN5CCOCC5)cc4)[nH]n3)cc2)no1`: the IC50 is 52 nM in data set [1], more than 1000 nM in data set [2], more than 1000 nM in data set [3] and more than 1000 nM against Aurora kinase A. Moreover, the AUC(0-t) at 4 h in data set [4] stood at 1030 ng·h/mL. The compound also had a GI50 with MOLM-13 of 4 nM.
Consider `O=C(Nc1ccc(-c2cc(NC(=O)c3ccc(OCCN4CCCC4)cc3)[nH]n2)cc1)Oc1ccccc1`, for which the IC50 in data set [1] is 40 nM; in data set [2], 300 nM; in data set [3], more than 1000 nM; on Aurora kinase A, more than 1000 nM. The compound also yielded a GI50 with MOLM-13 of 47 nM.
Take `CN1CCN(c2ccc(C(=O)Nc3cc(-c4ccc(NC(=O)Oc5ccccc5)cc4)n[nH]3)cc2)CC1`: the concentration for half-maximal inhibition (IC50) was 12 nM in data set [1], 180 nM in data set [2], 320 nM in data set [3] and more than 1000 nM at Aurora kinase A. Further, the GI50 in the data set with MOLM-13 came to 5 nM.
On the same counts, the results for `O=C(NCc1ccc(-c2cc(NC(=O)c3ccc(OCCN4CCOCC4)cc3)[nH]n2)cc1)OCc1cccnc1` are 20 nM, more than 1000 nM, more than 1000 nM, more than 1000 nM and 7 nM.
As for `Cc1cc(COC(=O)NCc2ccc(-c3cc(NC(=O)c4ccc(OCCN5CCCC5)cc4)[nH]n3)cc2)no1`, the IC50 in data set [1] is 43 nM; in data set [2] it was 480 nM; in data set [3], 590 nM; at Aurora kinase A, more than 1000 nM. This compound came in with an AUC(0-t) at 4 h in data set [4] of 448 ng·h/mL. The same compound registered a GI50 with MOLM-13 of 2 nM.
For the compound `Cc1cc(COC(=O)NCc2ccc(-c3cc(NC(=O)c4ccc(N5CCN(C)CC5)cc4)[nH]n3)cc2)no1`, the IC50 in data set [1] was 27 nM; in data set [2], 370 nM; in data set [3] it was 350 nM; at Aurora kinase A, more than 1000 nM. The compound further returned a GI50 in the data set with MOLM-13 of 1 nM.
On the same counts, the results for `Cc1nc(Nc2cc(-c3ccc(CNC(=O)OCc4ccccc4)cc3)n[nH]2)cc(N2CCNCC2)n1` are 17 nM, 190 nM, 82 nM, 350 nM and 6 nM.
In the case of `Cc1nc(Nc2cc(-c3ccc(CNC(=O)OCc4cccnc4)cc3)n[nH]2)cc(N2CCN(CCO)CC2)n1`, the IC50 in data set [1] was 21 nM; in data set [2] it was more than 1000 nM; in data set [3], more than 1000 nM; against Aurora kinase A, more than 1000 nM. Besides, in the data set with MOLM-13, the GI50 came to 3 nM.
Take `CN1CCN(c2ccc(C(=O)Nc3cc(-c4ccc(CNC(=O)OCc5ccccc5)cc4)n[nH]3)cc2)CC1`: the IC50 in data set [1] was 6 nM; in data set [2] it was 100 nM; in data set [3], 20 nM; against Aurora kinase A, 880 nM. Also, the GI50 in the data set on MOLM-13 is 2 nM.
As to `Cc1nc(Nc2cc(-c3ccc(CNC(=O)OCc4cc(C)on4)cc3)n[nH]2)cc(N2CCN(CCO)CC2)n1`, the IC50 in data set [1] is 72 nM; in data set [2], more than 1000 nM; in data set [3], more than 1000 nM; against Aurora kinase A, more than 1000 nM. In data set [4], this compound registered an AUC(0-t) at 4 h of 443 ng·h/mL. In addition, the GI50 in the data set on MOLM-13 turned out to be 5 nM.
Consider `CN1CCN(c2ccc(C(=O)Nc3cc(-c4ccc(CNC(=O)Oc5ccccc5)cc4)n[nH]3)cc2)CC1`, for which the IC50 in data set [1] was 16 nM; in data set [2], 92 nM; in data set [3] it was 54 nM; against Aurora kinase A it was more than 1000 nM. This compound also yielded a GI50 in the data set with MOLM-13 of 20 nM.
As for `O=C(NCc1ccc(-c2cc(NC(=O)c3ccc(OCCN4CCOCC4)cc3)[nH]n2)cc1)OCc1ccccc1`, the IC50 in data set [1] came out at 17 nM; in data set [2], 370 nM; in data set [3] it was 370 nM; on Aurora kinase A, 590 nM. In the data set on MOLM-13, this compound came in with a GI50 of 8 nM.
As for `CN1CCN(c2ccc(C(=O)Nc3cc(-c4ccc(CNC(=O)OCc5cccnc5)cc4)n[nH]3)cc2)CC1`, the IC50 in data set [1] is 14 nM; in data set [2], 220 nM; in data set [3], 250 nM; against Aurora kinase A, more than 1000 nM. The same compound showed an AUC(0-t) at 4 h in data set [4] of 272 ng·h/mL. In the data set with MOLM-13, the GI50 was found to be 2 nM.
With `CN1CCN(c2ccc(C(=O)Nc3cc(-c4ccc(NS(=O)(=O)c5ccccc5)cc4)n[nH]3)cc2)CC1`, the IC50 (in data set [2]; in data set [3]; against Aurora kinase A) was more than 1000 nM throughout. Moreover, in the data set on MOLM-13, it took 500 nM to inhibit growth by half (GI50).
As to `Cc1nc(Nc2cc(-c3ccc(CNC(=O)OCc4cccnc4)cc3)n[nH]2)cc(N2CCN(C)CC2)n1`, the IC50 in data set [1] was 4 nM; in data set [2] it was more than 1000 nM; in data set [3] it was more than 1000 nM; against Aurora kinase A it was more than 1000 nM. This compound also came in with a GI50 in the data set with MOLM-13 of 2 nM.
In the case of `CN1CCN(Cc2ccc(C(=O)Nc3cc(-c4ccc(CNC(=O)OCc5ccccc5)cc4)n[nH]3)cc2)CC1`, the IC50 was 7 nM in data set [1], 170 nM in data set [2], 320 nM in data set [3] and more than 1000 nM against Aurora kinase A. The compound further registered a GI50 in the data set with MOLM-13 of 4 nM.
On to `CN1CCN(c2ccc(C(=O)Nc3cc(-c4ccc(CNS(=O)(=O)c5ccccc5)cc4)n[nH]3)cc2)CC1`, for which the IC50 is 140 nM in data set [1], more than 1000 nM in data set [2], more than 1000 nM in data set [3] and 1000 nM against Aurora kinase A. The compound also had a GI50 in the data set with MOLM-13 of 47 nM.
As to `O=C(NCc1ccc(-c2cc(NC(=O)c3ccc(OCCCN4CCCC4)cc3)[nH]n2)cc1)OCc1ccccc1`, the IC50 is 19 nM in data set [1], 240 nM in data set [2], 180 nM in data set [3] and more than 1000 nM on Aurora kinase A. Halving of growth in the data set with MOLM-13 (GI50) required 9 nM.
On the same counts, the results for `Cc1nc(Nc2cc(-c3ccc(CNC(=O)OCc4cc(C)on4)cc3)n[nH]2)cc(N2CCN(C)CC2)n1` are 5 nM, more than 1000 nM, more than 1000 nM, more than 1000 nM and 4 nM.
Consider `O=C(NCc1ccc(-c2cc(NC(=O)c3ccc(OCCN4CCCC4)cc3)[nH]n2)cc1)OCc1cccnc1`, for which the IC50 was 35 nM in data set [1], more than 1000 nM in data set [2], more than 1000 nM in data set [3] and more than 1000 nM at Aurora kinase A. The AUC(0-t) at 4 h in data set [4] turned out to be 266 ng·h/mL. The compound also came in with a GI50 in the data set on MOLM-13 of 8 nM.
As to `CN1CCN(c2ccc(C(=O)Nc3cc(-c4ccc(NC(=O)OCc5ccccc5)cc4)n[nH]3)cc2)CC1`, the half-inhibitory concentration (IC50) in data set [1] was 7 nM; in data set [2] it was 48 nM; in data set [3], 200 nM; against Aurora kinase A, more than 1000 nM. Moreover, growth with MOLM-13 was halved (GI50) at 16 nM.
As for `CCOC(=O)NCc1ccc(-c2cc(NC(=O)c3ccc(N4CCN(C)CC4)cc3)[nH]n2)cc1`, the IC50 in data set [1] is 17 nM; in data set [2] it was 560 nM; in data set [3] it was more than 1000 nM; on Aurora kinase A it was more than 1000 nM. For the same compound, the GI50 in the data set on MOLM-13 was found to be 48 nM.
